Reference: patent US20250059171A1 (Hoffmann-La Roche Inc., priority 2021, published 2025)

What was measured:
SARS-CoV-2 3CLpro = SARS-CoV-2 3CLpro (Severe acute respiratory syndrome coronavirus 2, UniProt P0DTD1); assay: biochemical
MERS-CoV 3CLpro = MERS-CoV 3CLpro (Middle East respiratory syndrome-related coronavirus, UniProt K9N7C7); assay: biochemical
HCoV-229E 3CLpro = HCoV-229E 3CLpro (Human coronavirus 229E, UniProt P0C6X1); assay: HCoV-229E 3CLpro inhibition assay (FRET); assay type: biochemical
HCoV-229E 3CLpro, sequence (P0C6X1 2966-3267): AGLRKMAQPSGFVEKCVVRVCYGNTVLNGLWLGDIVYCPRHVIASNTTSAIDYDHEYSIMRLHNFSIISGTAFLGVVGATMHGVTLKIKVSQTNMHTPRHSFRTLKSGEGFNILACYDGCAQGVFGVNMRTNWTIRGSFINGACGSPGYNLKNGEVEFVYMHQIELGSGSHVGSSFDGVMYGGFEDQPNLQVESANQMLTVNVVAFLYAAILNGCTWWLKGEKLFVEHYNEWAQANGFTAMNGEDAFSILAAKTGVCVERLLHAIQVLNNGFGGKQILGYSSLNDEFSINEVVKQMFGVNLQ

SARS-CoV 3CLpro = SARS-CoV 3CLpro (Severe acute respiratory syndrome coronavirus, UniProt P0C6X7); assay: biochemical

MERS-CoV 3CLpro, sequence (K9N7C7 3248-3553): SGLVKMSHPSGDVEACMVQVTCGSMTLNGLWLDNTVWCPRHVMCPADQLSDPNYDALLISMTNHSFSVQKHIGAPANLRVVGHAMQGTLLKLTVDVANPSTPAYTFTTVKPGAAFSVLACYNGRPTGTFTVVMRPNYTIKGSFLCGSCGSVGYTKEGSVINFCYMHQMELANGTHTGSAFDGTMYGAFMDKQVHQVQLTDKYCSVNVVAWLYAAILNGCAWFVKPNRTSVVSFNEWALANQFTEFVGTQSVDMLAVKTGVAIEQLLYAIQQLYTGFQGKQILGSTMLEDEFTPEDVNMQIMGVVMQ

Structure (SMILES)	IC50 (SARS-CoV-2 3CLpro) [nM]	IC50 (MERS-CoV 3CLpro) [nM]	IC50 (HCoV-229E 3CLpro) [nM]	IC50 (SARS-CoV 3CLpro) [nM]
CC[C@H](NC(=O)C(F)(F)F)C(=O)N1C[C@@H]2CCC[C@@H]2[C@H]1C(=O)NN(C[C@@H]1CCNC1=O)C(=O)[C@H](F)Cl [Example 72, N-[(1S)-1-[(3S,3aS,6aR)-3-[[[(2R)-2-chloro-2-fluoro-acetyl]-[[(3S)-2-oxopyrrolidin-3-yl]methyl]amino]carbamoyl]-3,3a,4,5,6,6a-hexahydro-1H-cyclopenta[c]pyrrole-2-carbonyl]propyl]-2,2,2-trifluoro-acetamide]	8	58	23	11
CC[C@@H](C)[C@H](NC(=O)C(F)(F)F)C(=O)N1C[C@@H]2CCC[C@@H]2[C@H]1C(=O)NN(C[C@@H]1CCNC1=O)C(=O)[C@H](F)Cl [Example 73, N-[(1S,2R)-1-[(3S,3aS,6aR)-3-[[[(2R)-2-chloro-2-fluoro-acetyl]-[[(3S)-2-oxopyrrolidin-3-yl]methyl]amino]carbamoyl]-3,3a,4,5,6,6a-hexahydro-1H-cyclopenta[c]pyrrole-2-carbonyl]-2-methyl-butyl]-2,2,2-trifluoro-acetamide]	33	110	40	12
O=C1NCC[C@H]1CN(NC(=O)[C@@H]1[C@H]2CCC[C@H]2CN1C(=O)[C@@H](NC(=O)C(F)(F)F)C1CCC1)C(=O)[C@H](F)Cl [Example 74, N-[(1S)-2-[(3S,3aS,6aR)-3-[[[(2R)-2-chloro-2-fluoro-acetyl]-[[(3S)-2-oxopyrrolidin-3-yl]methyl]amino]carbamoyl]-3,3a,4,5,6,6a-hexahydro-1H-cyclopenta[c]pyrrol-2-yl]-1-cyclobutyl-2-oxo-ethyl]-2,2,2-trifluoro-acetamide]	7	358	117	45
C[C@H](NC(=O)C(F)(F)F)C(=O)N1C[C@@H]2CCC[C@@H]2[C@H]1C(=O)NN(C[C@@H]1CCNC1=O)C(=O)[C@H](F)Cl [Example 75, N-[(1S)-2-[(3S,3aS,6aR)-3-[[[(2R)-2-chloro-2-fluoro-acetyl]-[[(3S)-2-oxopyrrolidin-3-yl]methyl]amino]carbamoyl]-3,3a,4,5,6,6a-hexahydro-1H-cyclopenta[c]pyrrol-2-yl]-1-methyl-2-oxo-ethyl]-2,2,2-trifluoro-acetamide]	12	83	33	12
CC[C@@H](C)[C@H](NC(=O)C(C)(F)F)C(=O)N1C[C@@H]2CCC[C@@H]2[C@H]1C(=O)NN(C[C@@H]1CCNC1=O)C(=O)[C@H](F)Cl [Example 76, N-[(1S,2R)-1-[(3S,3aS,6aR)-3-[[[(2R)-2-chloro-2-fluoro-acetyl]-[[(3S)-2-oxopyrrolidin-3-yl]methyl]amino]carbamoyl]-3,3a,4,5,6,6a-hexahydro-1H-cyclopenta[c]pyrrole-2-carbonyl]-2-methyl-butyl]-2,2-difluoro-propanamide]	8	194	88	15
CCC(CC)[C@H](NC(=O)C(F)(F)F)C(=O)N1C[C@@H]2CCC[C@@H]2[C@H]1C(=O)NN(C[C@@H]1CCNC1=O)C(=O)[C@H](F)Cl [Example 77, N-[(1S)-1-[(3S,3aS,6aR)-3-[[[(2R)-2-chloro-2-fluoro-acetyl]-[[(3S)-2-oxopyrrolidin-3-yl]methyl]amino]carbamoyl]-3,3a,4,5,6,6a-hexahydro-1H-cyclopenta[c]pyrrole-2-carbonyl]-2-ethyl-butyl]-2,2,2-trifluoro-acetamide]	7	69	28	12
CCC[C@H](NC(=O)C(F)(F)F)C(=O)N1C[C@@H]2CCC[C@@H]2[C@H]1C(=O)NN(C[C@@H]1CCNC1=O)C(=O)[C@H](F)Cl [Example 78, N-[(1S)-1-[(3S,3aS,6aR)-3-[[[(2R)-2-chloro-2-fluoro-acetyl]-[[(3S)-2-oxopyrrolidin-3-yl]methyl]amino]carbamoyl]-3,3a,4,5,6,6a-hexahydro-1H-cyclopenta[c]pyrrole-2-carbonyl]butyl]-2,2,2-trifluoro-acetamide]	9	57	23	10
CC[C@H](C)[C@H](NC(=O)C1(F)CC1)C(=O)N1C[C@@H]2CCC[C@@H]2[C@H]1C(=O)NN(C[C@@H]1CCNC1=O)C(=O)[C@H](F)Cl [Example 79, N-[(1S,2S)-1-[(3S,3aS,6aR)-3-[[[(2R)-2-chloro-2-fluoro-acetyl]-[[(3S)-2-oxopyrrolidin-3-yl]methyl]amino]carbamoyl]-3,3a,4,5,6,6a-hexahydro-1H-cyclopenta[c]pyrrole-2-carbonyl]-2-methyl-butyl]-1-fluoro-cyclopropanecarboxamide]	7.1	114	39	11
CC[C@H](C)[C@H](NC(=O)c1ccccc1)C(=O)N1C[C@@H]2CCC[C@@H]2[C@H]1C(=O)NN(C[C@@H]1CCNC1=O)C(=O)[C@H](F)Cl [Example 80, N-[(1S,2S)-1-[(3S,3aS,6aR)-3-[[[(2R)-2-chloro-2-fluoro-acetyl]-[[(3S)-2-oxopyrrolidin-3-yl]methyl]amino]carbamoyl]-3,3a,4,5,6,6a-hexahydro-1H-cyclopenta[c]pyrrole-2-carbonyl]-2-methyl-butyl]benzamide]	10	58	20	11
CC[C@H](C)[C@H](NC(C)=O)C(=O)N1C[C@@H]2CCC[C@@H]2[C@H]1C(=O)NN(C[C@@H]1CCNC1=O)C(=O)[C@H](F)Cl [Example 81, N-[(1S,2S)-1-[(3S,3aS,6aR)-3-[[[(2R)-2-chloro-2-fluoro-acetyl]-[[(3S)-2-oxopyrrolidin-3-yl]methyl]amino]carbamoyl]-3,3a,4,5,6,6a-hexahydro-1H-cyclopenta[c]pyrrole-2-carbonyl]-2-methyl-butyl]acetamide]	9	93	45	15
CC(C)(C)[C@H](NC(=O)C1(F)CC1)C(=O)N1C[C@@H]2CCC[C@@H]2[C@H]1C(=O)NN(C[C@@H]1CCNC1=O)C(=O)[C@H](F)Cl [Example 82, N-[(1S)-1-[(3S,3aS,6aR)-3-[[[(2R)-2-chloro-2-fluoro-acetyl]-[[(3S)-2-oxopyrrolidin-3-yl]methyl]amino]carbamoyl]-3,3a,4,5,6,6a-hexahydro-1H-cyclopenta[c]pyrrole-2-carbonyl]-2,2-dimethyl-propyl]-1-fluoro-cyclopropanecarboxamide]	8	84	33	12
CC(C)(C)[C@H](NC(=O)C1(F)CC1)C(=O)N1C[C@H]2[C@@H]([C@H]1C(=O)NN(C[C@@H]1CCNC1=O)C(=O)[C@H](F)Cl)C2(C)C [Example 83, N-[(1S)-1-[(1R,2S,5S)-2-[[[(2R)-2-chloro-2-fluoro-acetyl]-[[(3S)-2-oxopyrrolidin-3-yl]methyl]amino]carbamoyl]-6,6-dimethyl-3-azabicyclo[3.1.0]hexane-3-carbonyl]-2,2-dimethyl-propyl]-1-fluoro-cyclopropanecarboxamide]	9	97	31	10
